From US20250241878A1, “TYROSINE AND RESVERATROL DERIVATIVES AS NOVEL MODULATORS OF CELLULAR SERINE ADP-RIBOSYLATION” (UNIVERSITY OF SOUTH CAROLINA, priority 2022, published 2025)

Columns and labels:
[1] = tested on: interaction of PARP1 with histone H3; experiment: PARP1 immunoprecipitation probed for H3; type: cell-based, rat
Experimental: FIG. 18A presents representative immunoblots and quantification of the interaction of H3 with PARP1. […] The interaction of PARP1 with H3 was determined using anti-H3 antibody.

cortical neurons = experiment: DNA fiber analysis (CIdU incorporation); type: cell-based, rat
Experimental: Molecular combing was performed using the FiberComb® Molecular Combing System (Genomic Vision) with a constant stretching factor of 2 kb/μm using […] coverslips (20×20 mm; Genomic Vision). […] The coverslips were then washed with PBS, followed by serial ethanol dehydration (70%-100%). Following two 1×PBS washes, the coverslips were blocked in 3% BSA/1×PBS for 30 min followed by incubation with α-BrdU (for CIdU) (BD [347,580]) (1:100) and ssDNA antibody (MilliporeTM MAB3034) (1:100), for 2 hr at 37° C. After three PBST washes, secondary antibody incubation was done using α-mouse Alexa Fluor® 594 and α-rat Alexa Fluor® 488 (1:500) for 1 hr at 37° C. Coverslips were washed three times with 1×PBST, dehydrated and mounted on slides with mounting media. The stained DNA fibers were visualized using a fluorescence microscope (EVOS FL, Thermo FisherTM Scientific). Analysis was performed in ImageJ by counting the total ssDNA and the CIdU labeled fibers. For each treatment condition, 300 fibers were counted, and the average ratio of CIdU incorporation for ssDNA fibers per condition was used for final representation.

cleaved caspase-3 = experiment: Cleaved caspase-3 immunoblot; type: cell-based, rat; conditions: compound alone; trans-RSV at high concentration
Experimental: FIG. 17E presents immunoblots showing the levels of cleaved caspase-3 in rat cortical neurons (DIV 9/10) after the treatment with D-Tyr (2 mM) for 16 hr.

[2] = target: T1, interaction of eEF2 with TyrRS and PP2A (Rattus norvegicus, UniProt Q4KM49); experiment: eEF2 immunoprecipitation probed for PP2A and TyrRS; type: cell-based; conditions: compound alone
T1 construct: endogenous in cells; host or cells: primary rat (E18 Sprague Dawley) cortical neurons
T1 sequence (Q4KM49 1-528): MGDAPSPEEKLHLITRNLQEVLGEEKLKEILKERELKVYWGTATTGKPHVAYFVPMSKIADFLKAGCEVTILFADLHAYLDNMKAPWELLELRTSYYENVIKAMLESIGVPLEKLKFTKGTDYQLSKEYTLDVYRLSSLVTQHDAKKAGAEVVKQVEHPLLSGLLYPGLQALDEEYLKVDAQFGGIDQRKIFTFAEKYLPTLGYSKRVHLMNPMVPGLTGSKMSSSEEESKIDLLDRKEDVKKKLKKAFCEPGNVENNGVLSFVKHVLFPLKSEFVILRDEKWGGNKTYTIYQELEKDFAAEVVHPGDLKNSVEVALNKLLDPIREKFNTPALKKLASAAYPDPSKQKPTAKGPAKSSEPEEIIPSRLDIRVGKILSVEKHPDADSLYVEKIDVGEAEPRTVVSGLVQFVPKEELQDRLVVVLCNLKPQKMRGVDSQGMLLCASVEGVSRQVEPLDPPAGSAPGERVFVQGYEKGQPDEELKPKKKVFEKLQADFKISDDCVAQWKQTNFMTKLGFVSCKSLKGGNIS
Excerpt: Immunoprecipitated eEF2 was probed for its interaction with PP2A and TyrRS using their specific antibodies.

AcK56-H3 and AcK16-H4 = experiment: Histone acetylation immunoblot (AcK56-H3, AcK16-H4); type: cell-based, rat; set-up: dose or concentration left out as unconfirmed
PARP1 = conditions: previously observed; cited from earlier work
eIF2α = experiment: p-eIF2α Western blot in cortical neurons; type: cell-based, rat; conditions: compound alone
Experimental: Primary cortical neurons were dissected from E18 Sprague Dawley rat pups in Hibernate E (BrainBits®) and dissociated using the Neural Tissue Dissociation kit (Miltenyi Biotec). […] After washing and centrifugation, neurons were seeded in 50 μg/ml poly-D-Lysine (Sigma-Aldrich) coated tissue culture plates. NBActive-1 medium (BrainBits®) supplemented with 100 U/ml of Penicillin-Streptomycin (Life TechnologiesTM), 2 mM L-Glutamine (Life TechnologiesTM), and 1×[…] supplement (R&D SystemsTM) was used as culture medium. For preparation of culture medium containing reduced tyrosine, the components of NBActive-1 medium were altered to combined with a reduced concentration of tyrosine, as mentioned in Table 1, and was supplemented with 100 U/ml of Penicillin-Streptomycin (Life TechnologiesTM), 2 mM L-Glutamine (Life TechnologiesTM), and 1×[…] supplement (R&D SystemsTM) to obtained culture medium with reduced tyrosine. […] For PARP1 siRNA, neurons at 7 DIV were transfected with 75 nM siRNA for both control and PARP1 siRNA. […] The lysates were centrifuged at 10,000 RPM for 15 mins at 4° C. to separate the chromatin-bound and soluble fractions. Lysates were quantified using Bio-RadTM Protein Assay and equal amounts of protein were loaded onto a 4 to 12% gradient gel (InvitrogenTM NuPAGETM). […] Quantification of western blots was done using ImageJ (Version 1.53c).

HPF1 = HPF1 levels immunoblot in cortical neurons; type: cell-based, rat; conditions: compound alone
Experimental: FIG. 5A presents immunoblots showing the protein levels of HPF1 in rat cortical neurons (DIV9-10) after treatment with Tyr ([…]) for up to 8 hr.
Cultured neurons (DIV 9-10) were washed once with cold 1×PBS and lysed in cell lysis buffer (20 mM Tris-HCl (pH 7.5), 150 mM NaCl, 1 mM Na2EDTA, 1 mM EGTA, 1% Triton™, 2.5 mM sodium pyrophosphate, 1 mM beta-glycerophosphate, 1 mM Na3VO4, 1 μg/ml leupeptin supplemented with protease inhibitor). The lysates were centrifuged at 10,000 RPM for 15 mins at 4° C. to separate the chromatin-bound and soluble fractions. Lysates were quantified using Bio-Rad™ Protein Assay and equal amounts of protein were loaded onto a 4 to 12% gradient gel (Invitrogen™ NuPAGE™). Protein was transferred from the gel to 0.2 μm NC membranes at 25 V for 10 mins using transfer stacks (iBlot™ 2-Invitrogen™) and blocked with 5% non-fat milk in TBST (10 mM Tris-HCl pH 8.0, 150 mM NaCl, 0.01% Tween-20) for 1 hr before application of primary antibodies. Primary and secondary antibodies were incubated overnight at 4° C. and for 1 hr at room temperature, respectively. Immobilon® ECL Ultra Western HRP Substrate (WBULS0500, Millipore™) and a luminescent image analyzer (ChemiDoc™ Imaging System, Bio-Rad™) were used to detect proteins. Quantification of western blots was done using ImageJ (Version 1.53c).

Structure (SMILES): Oc1ccc(/C=C\c2cc(O)cc(O)c2)cc1 [cis-RSV, cis-resveratrol]
- interaction of PARP1 with histone H3 ([1]; cis-RSV): prevented the interaction of PARP1 with histone H3
- reduction of CIdU incorporation compared to control (cortical neurons; after cis-RSV treatment): 15-20%
- levels of cleaved caspase-3 (cleaved caspase-3): decreased the levels of caspase-3 cleavage
- interaction of eEF2 with TyrRS and PP2A [2]: facilitated the interaction of eEF2 with TyrRS and PP2A
- AcK16-H4 acetylation (AcK56-H3 and AcK16-H4; cis-RSV): increased the acetylation of H4 lysine 16
- auto-PARylation of PARP1 (PARP1): stimulate the auto-PARylation
- p-eIF2α levels (eIF2α): triggered a transient increase in the levels of p-eIF2α

Structure (SMILES): Oc1ccc(/C=C/c2cc(O)cc(O)c2)cc1 [trans-RSV, trans-resveratrol]
- interaction of PARP1 with histone H3 ([1]; higher concentrations (≥25 mM) of trans-RSV): increased it
- interaction of PARP1 with histone H3 ([1]; low concentrations of trans-RSV): prevented the interaction of PARP1 with histone H3
- incorporation of nucleoside analog CIdU into DNA fibers (cortical neurons; compound alone): prevented the incorporation of the nucleoside analog CIdU into DNA fibers
- levels of cleaved caspase-3 (cleaved caspase-3): increased the levels of cleaved caspase-3
- interaction of eEF2 with TyrRS and PP2A [2]: decreased their interactions
- HPF1 levels (HPF1): decreased HPF1 levels
- AcK16-H4 acetylation (AcK56-H3 and AcK16-H4; trans-RSV): inhibited H3 and H4 acetylation at lysines 56 and 16
- AcK56-H3 acetylation (AcK56-H3 and AcK16-H4; trans-RSV): inhibited H3 and H4 acetylation at lysines 56 and 16
- p-eIF2α levels (eIF2α): sustained the inhibition of eIF2α

Structure (SMILES): N[C@@H](Cc1ccc(O)cc1)C(=O)O [tyrosine, L-tyrosine]
- interaction of eEF2 with TyrRS and PP2A [2]: decreased their interactions
- HPF1 levels (HPF1): decreased HPF1 levels
- auto-PARylation of PARP1 (PARP1): inhibits the auto-PARylation of PARP1
